Results from ChEMBL document CHEMBL1781873, “Synthesis and antibacterial property of pyrrolopyrano quinolinones and pyrroloquinolines” (2011).
≈ marks a conversion by molar mass, not a printed value. Calls of active or inactive are those of the source. The rule behind the calls is not given here.

Tests used:
Salmonella typhi [1] = test: Antibacterial activity against Salmonella typhi at 5 ug after 24 hrs by disc diffusion assay; type: functional, Salmonella enterica subsp. enterica serovar Typhi; settings: Salmonella enterica, read-out: IZ
Escherichia coli [2] = test: Inhibition of DNA gyrase mRNA expression in Escherichia coli measured up to 24 hrs by RT-PCR; type: functional, organism-based
Staphylococcus aureus [3] = test: Antibacterial activity against Staphylococcus aureus at 5 ug after 24 hrs by disc diffusion assay; type: functional; settings: read-out: IZ
Escherichia coli [4] = test: Inhibition of Escherichia coli DNA gyrase assessed as inhibition of DNA supercoiling activity using pBR322 DNA as substrate at […] after 3 hrs by agarose gel electrophoresis
Staphylococcus aureus [5] = test: Antibacterial activity against Staphylococcus aureus at 20 ug after 24 hrs by disc diffusion assay; type: functional; settings: read-out: IZ
Escherichia coli [6] = test: Antibacterial activity against Escherichia coli at 20 ug after 24 hrs by disc diffusion assay; type: functional; settings: read-out: IZ
Bacillus subtilis [7] = test: Antibacterial activity against Bacillus subtilis at 20 ug after 24 hrs by disc diffusion assay; type: functional; settings: read-out: IZ
Pseudomonas aeruginosa [8] = test: Antibacterial activity against Pseudomonas aeruginosa at 20 ug after 24 hrs by disc diffusion assay; type: functional; settings: read-out: IZ
Klebsiella pneumoniae [9] = test: Antibacterial activity against Klebsiella pneumoniae at 25 ug after 24 hrs by disc diffusion assay; type: functional; settings: read-out: IZ
Klebsiella pneumoniae [10] = test: Antibacterial activity against Klebsiella pneumoniae at 20 ug after 24 hrs by disc diffusion assay; type: functional; settings: read-out: IZ
Salmonella typhi [11] = test: Antibacterial activity against Salmonella typhi at 15 ug after 24 hrs by disc diffusion assay; type: functional, Salmonella enterica subsp. enterica serovar Typhi; settings: Salmonella enterica, read-out: IZ
Salmonella typhi [12] = test: Antibacterial activity against Salmonella typhi at 20 ug after 24 hrs by disc diffusion assay; type: functional, Salmonella enterica subsp. enterica serovar Typhi; settings: Salmonella enterica, read-out: IZ
Staphylococcus aureus [13] = test: Antibacterial activity against Staphylococcus aureus at 10 ug after 24 hrs by disc diffusion assay; type: functional; settings: read-out: IZ
Salmonella typhi [14] = test: Antibacterial activity against Salmonella typhi after 18 to 20 hrs by broth micro dilution assay; type: functional, Salmonella enterica subsp. enterica serovar Typhi; settings: Salmonella enterica
Bacillus subtilis [15] = test: Antibacterial activity against Bacillus subtilis at 25 ug after 24 hrs by disc diffusion assay; type: functional; settings: read-out: IZ
Escherichia coli [16] = test: Antibacterial activity against Escherichia coli after 18 to 20 hrs by broth micro dilution assay; type: functional
Pseudomonas aeruginosa [17] = test: Antibacterial activity against Pseudomonas aeruginosa at 15 ug after 24 hrs by disc diffusion assay; type: functional; settings: read-out: IZ
Escherichia coli [18] = test: Antibacterial activity against Escherichia coli at 10 ug after 24 hrs by disc diffusion assay; type: functional; settings: read-out: IZ
Escherichia coli [19] = test: Antibacterial activity against Escherichia coli at 5 ug after 24 hrs by disc diffusion assay; type: functional; settings: read-out: IZ
Salmonella typhi [20] = test: Antibacterial activity against Salmonella typhi at 25 ug after 24 hrs by disc diffusion assay; type: functional, Salmonella enterica subsp. enterica serovar Typhi; settings: Salmonella enterica, read-out: IZ
Staphylococcus aureus [21] = test: Antibacterial activity against Staphylococcus aureus at 15 ug after 24 hrs by disc diffusion assay; type: functional; settings: read-out: IZ
Escherichia coli [22] = test: Inhibition of Escherichia coli DNA gyrase -mediated DNA relaxation using pBR322 DNA as substrate at […] after 1 hrs by agarose gel electrophoresis
Pseudomonas aeruginosa [23] = test: Antibacterial activity against Pseudomonas aeruginosa at 5 ug after 24 hrs by disc diffusion assay; type: functional; settings: read-out: IZ
Staphylococcus aureus [24] = test: Antibacterial activity against Staphylococcus aureus after 18 to 20 hrs by broth micro dilution assay; type: functional
Klebsiella pneumoniae [25] = test: Antibacterial activity against Klebsiella pneumoniae at 15 ug after 24 hrs by disc diffusion assay; type: functional; settings: read-out: IZ
Bacillus subtilis [26] = test: Antibacterial activity against Bacillus subtilis at 10 ug after 24 hrs by disc diffusion assay; type: functional; settings: read-out: IZ
Pseudomonas aeruginosa [27] = test: Antibacterial activity against Pseudomonas aeruginosa at 25 ug after 24 hrs by disc diffusion assay; type: functional; settings: read-out: IZ
Klebsiella pneumoniae [28] = test: Antibacterial activity against Klebsiella pneumoniae at 5 ug after 24 hrs by disc diffusion assay; type: functional; settings: read-out: IZ
Pseudomonas aeruginosa [29] = test: Antibacterial activity against Pseudomonas aeruginosa after 18 to 20 hrs by broth micro dilution assay; type: functional
Escherichia coli [30] = test: Antibacterial activity against Escherichia coli at 15 ug after 24 hrs by disc diffusion assay; type: functional; settings: read-out: IZ
Staphylococcus aureus [31] = test: Antibacterial activity against Staphylococcus aureus at 25 ug after 24 hrs by disc diffusion assay; type: functional; settings: read-out: IZ
Bacillus subtilis [32] = test: Antibacterial activity against Bacillus subtilis at 15 ug after 24 hrs by disc diffusion assay; type: functional; settings: read-out: IZ
Klebsiella pneumoniae [33] = test: Antibacterial activity against Klebsiella pneumoniae at 10 ug after 24 hrs by disc diffusion assay; type: functional; settings: read-out: IZ
Bacillus subtilis [34] = test: Antibacterial activity against Bacillus subtilis after 18 to 20 hrs by broth micro dilution assay; type: functional
Escherichia coli [35] = test: Antibacterial activity against Escherichia coli at 25 ug after 24 hrs by disc diffusion assay; type: functional; settings: read-out: IZ
Pseudomonas aeruginosa [36] = test: Antibacterial activity against Pseudomonas aeruginosa at 10 ug after 24 hrs by disc diffusion assay; type: functional; settings: read-out: IZ
Salmonella typhi [37] = test: Antibacterial activity against Salmonella typhi at 10 ug after 24 hrs by disc diffusion assay; type: functional, Salmonella enterica subsp. enterica serovar Typhi; settings: Salmonella enterica, read-out: IZ
Klebsiella pneumoniae [38] = test: Antibacterial activity against Klebsiella pneumoniae after 18 to 20 hrs by broth micro dilution assay; type: functional

CCC1[C@@H]2Nc3ccc(Br)cc3C(c3ccccc3)[C@H]2CN1OS(=O)(=O)c1ccc(C)cc1 (some centres undefined)
zone of inhibition at 5 µg/disc (Salmonella typhi [1]): 10 mm
inhibition of gyrase mRNA expression (active/not active) (Escherichia coli [2]): inactive
zone of inhibition at 5 µg/disc (Staphylococcus aureus [3]): 20 mm
DNA gyrase inhibition (active/inactive) (Escherichia coli [4]): Active
zone of inhibition at 20 µg/disc (Staphylococcus aureus [5]): 30 mm
zone of inhibition at 20 µg/disc (Escherichia coli [6]): 22 mm
zone of inhibition at 20 µg/disc (Bacillus subtilis [7]): 10 mm
zone of inhibition at 20 µg/disc (Pseudomonas aeruginosa [8]): 34 mm
zone of inhibition at 25 µg/disc (Klebsiella pneumoniae [9]): 26 mm
zone of inhibition at 20 µg/disc (Klebsiella pneumoniae [10]): 24 mm
zone of inhibition at 15 µg/disc (Salmonella typhi [11]): 18 mm
zone of inhibition at 20 µg/disc (Salmonella typhi [12]): 22 mm
zone of inhibition at 10 µg/disc (Staphylococcus aureus [13]): 24 mm
MIC50 (Salmonella typhi [14]): 0.25 µg/mL (≈ 0.474 µM)
MIC90 (Salmonella typhi [14]): 0.5 µg/mL (≈ 0.948 µM)
zone of inhibition at 25 µg/disc (Bacillus subtilis [15]): 11 mm
MIC50 (Escherichia coli [16]): 0.25 µg/mL (≈ 0.474 µM)
MIC90 (Escherichia coli [16]): 0.5 µg/mL (≈ 0.948 µM)
zone of inhibition at 15 µg/disc (Pseudomonas aeruginosa [17]): 28 mm
zone of inhibition at 10 µg/disc (Escherichia coli [18]): 14 mm
zone of inhibition at 5 µg/disc (Escherichia coli [19]): 12 mm
zone of inhibition at 25 µg/disc (Salmonella typhi [20]): 24 mm
zone of inhibition at 15 µg/disc (Staphylococcus aureus [21]): 26 mm
inhibition (Escherichia coli [22]): Active
zone of inhibition at 5 µg/disc (Pseudomonas aeruginosa [23]): 24 mm
MIC50 (Staphylococcus aureus [24]): 0.25 µg/mL (≈ 0.474 µM)
MIC90 (Staphylococcus aureus [24]): 0.5 µg/mL (≈ 0.948 µM)
zone of inhibition at 15 µg/disc (Klebsiella pneumoniae [25]): 16 mm
zone of inhibition at 10 µg/disc (Bacillus subtilis [26]): 8 mm
zone of inhibition at 25 µg/disc (Pseudomonas aeruginosa [27]): 36 mm
zone of inhibition at 5 µg/disc (Klebsiella pneumoniae [28]): 10 mm
MIC50 (Pseudomonas aeruginosa [29]): 0.25 µg/mL (≈ 0.474 µM)
MIC90 (Pseudomonas aeruginosa [29]): 0.5 µg/mL (≈ 0.948 µM)
zone of inhibition at 15 µg/disc (Escherichia coli [30]): 16 mm
zone of inhibition at 25 µg/disc (Staphylococcus aureus [31]): 36 mm
zone of inhibition at 15 µg/disc (Bacillus subtilis [32]): 9 mm
zone of inhibition at 10 µg/disc (Klebsiella pneumoniae [33]): 14 mm
MIC50 (Bacillus subtilis [34]): 0.25 µg/mL (≈ 0.474 µM)
MIC90 (Bacillus subtilis [34]): 0.5 µg/mL (≈ 0.948 µM)
zone of inhibition at 25 µg/disc (Escherichia coli [35]): 23 mm
zone of inhibition at 10 µg/disc (Pseudomonas aeruginosa [36]): 26 mm
zone of inhibition at 10 µg/disc (Salmonella typhi [37]): 16 mm
MIC50 (Klebsiella pneumoniae [38]): 0.25 µg/mL (≈ 0.474 µM)
MIC90 (Klebsiella pneumoniae [38]): 0.5 µg/mL (≈ 0.948 µM)
